Laboratory results reported in patent US7351294B2, “Surface cleaner” (Reckitt Benckiser (UK) Limited, priority 1999, dated 2008).

Assays:
[1] = cited from earlier work
[2] = Activity test: decolourisation of target dye gentian violet by sensitised TiO2 sol on an overhead projector, followed by UV/Visible spectrum
Method: A mixture of TiO2 sol (1 ml, 1 g/L) and tris(2,2′-dipyridyl4,4′-dicarboxylate)ruthenium(II)(dichloride) (4 ml, c=3.4×10^−5M) was stirred for about 1 minute using a rotamixer. The pH was recorded then the target dye gentian violet (GV dissolved in 20% ethanol solution, 0.05 ml or 0.08 ml, 0.03 wt/v %) was added and the mixture was stirred again. The initial colour of the sensitised TiO2 sol was yellow. Addition of gentian violet produced a purple colour at pH 3 and higher. A UV/Visible spectrum was taken at this stage. The vial containing the mixture was placed onto an overhead projector (2 cm height from the glass, in order to reduce heat). A UV/Visible spectrum was used to observe the colour change over a period of time at lamda max of the Target dye (Gentian violet or crystal violet)=588 nm in the white light spectrum. (OHP used: Model Ensign. Lamp:24V-250 W-3860 lux)
In order to get quantitative data a UV/Visible spectrum was taken at different times. […]

[3] = acid conditions (pH 3); cited from earlier work

Compound	Sensitising properties ([1]; pH 7 compared with lower pH)	Sensitising agent for charge injection into titania ([1]; acid pH, compared to tris(2,2′-bipridyl)ruthenium (II) dichloride)	Decolourisation on repeated addition of gentian violet (0.08 ml) ([2]; Example 19, with TiO2 sol (5 ml, 10 g/L), slower rate than on the first addition)	Activity with other light sources versus overhead projector ([2]; with TiO2 sol, daylight bulbs 40 W and 100 W, tungsten filament 35 W and 100 W, fluorescent tube 8 W)	Activity in sensitised photocatalytic oxidation of herbicides [3]
[Cl-].[Cl-].[Ru+2].c1ccc(-c2ccccn2)nc1.c1ccc(-c2ccccn2)nc1.c1ccc(-c2ccccn2)nc1 [tris(2,2′-bipridyl)ruthenium (II) dichloride, reference compound]	improve	–	–	–	–
tris(2,2′-bipyridyl-4,4′-dicarboxylate)ruthenium (II) dichloride	–	superior	still decolourising on the third addition	still works with all light sources tried albeit much slower	active
